Experimental data taken from patent publication US6699895B2, “2-aminothiazoline derivatives and process for preparing the same” (Aventis Pharma S.A., priority 2000, dated 2004).

melting point: 125 to 127 °C
SMILES: Cl.NC1=N[C@H](Cc2cccs2)CS1
